Experimental data: PubChem BioAssay AID2305 (GlaxoSmithKline (GSK), 2010)

tested on: P. falciparum 3D7 growth, pLDH absorbance; experiment: blood-stage malaria parasite growth potency – strain 3D7, dose response (AID 2305)

`CC[C@H](C)CNCc1ccc(OCc2cccc(COc3ccc(CNC[C@@H](C)CC)cc3I)c2)c(I)c1` was tested. Which IC50 did it give?
The IC50 was 0.4 µM.

Which IC50 does the source give for `Oc1ccc(Cl)cc1CN1CCC(CCOC(c2ccccc2)c2ccc(Cl)cc2)CC1` (centres undefined) here?
Its IC50 is 0.39 µM.

Which IC50 does the source give for `CCOC(=O)c1ccc(NC(=O)Nc2ccc(-c3ccc(-c4nc5ccccc5[nH]4)cc3)cc2)cc1` here?
Its IC50 is 0.02 µM.

Which IC50 does the source give for `CN(C)c1ccc(CN2CCCCC(NC(=O)c3cc(-c4ccccc4F)cs3)C2)cc1` (centres undefined) here?
The IC50 was 0.83 µM.

For `COc1cc(F)c2ncc(F)c(CCN3C[C@H](CNCc4ccc5c(n4)NC(=O)CS5)[C@H](O)C3)c2c1`, which IC50 is on record?
Its IC50 is 0.46 µM.

Which IC50 does the source give for `Cc1ccc(N2CCN(C(=O)c3cccc(-c4cncc5nc(-c6ccco6)n(C)c45)c3)CC2)nc1` here?
The IC50 was 0.6 µM.

For `OC(c1cc(C(F)(F)F)nc2c(F)cccc12)C1CCCCN1` (centres undefined), which IC50 is on record?
The IC50 was 0.78 µM.

For `CN(C)c1ccc(N=C2N=C(Nc3ccc(N(C)C)cc3)c3ccccc32)cc1`, which IC50 is on record?
Its IC50 is 0.85 µM.

With `COc1ccc(C2(CNCC(O)c3cccc([N+](=O)[O-])c3)CCCCC2)cc1OC` (centres undefined) as the compound, how does the IC50 read?
Its IC50 is 0.96 µM.

For `FC(F)(F)c1ccc2nc(-c3cccc(-c4ccc(CNCC5CCCO5)cc4)c3)[nH]c2c1` (centres undefined), which IC50 is on record?
Its IC50 is 0.28 µM.

`Cc1[nH]c(C)c(-c2ccc(Oc3ccc(Cl)cc3)cc2)c(=O)c1I` was tested. Which IC50 did it give?
The IC50 was 0.96 µM.

For `O=C(Nc1ccc(Cl)cc1)c1ccc(CN2CCCN(Cc3ccccc3)CC2)cc1`, which IC50 is on record?
The IC50 was 0.75 µM.

With `c1cc(CNC2Cc3ccc(-c4cccs4)cc3C2)cc(-n2ccnc2)c1` (centres undefined) as the compound, how does the IC50 read?
The IC50 was 0.59 µM.

With `Cc1[nH]c(C)c(-c2ccc(Oc3ccc(F)cc3)cc2)c(=O)c1Br` as the compound, how does the IC50 read?
The IC50 was 0.05 µM.

`COCCn1c(Sc2ncnc3sccc23)nc2ccccc21` was tested. Which IC50 did it give?
The IC50 was 0.88 µM.

`CC(C)(C)OC(=O)NCc1ccc(Nc2nnc(-c3cccc(C(=O)NCc4cc(C(F)(F)F)cc(C(F)(F)F)c4)c3)o2)cc1` was tested. Which IC50 did it give?
The IC50 was 0.86 µM.

Which IC50 does the source give for `Fc1ccc2nccc(NN=CC=Cc3ccccc3)c2c1` here?
The IC50 was 0.68 µM.

With `COc1ccc(Cc2c(Cl)nc3nc(N)nc(N)c3c2C)cc1` as the compound, how does the IC50 read?
The IC50 was 1.09 µM.

For `COc1ccc(CNCCCCCCNCCc2ccc(Cl)cc2)cc1OC`, which IC50 is on record?
The IC50 was 1.39 µM.

For `Cc1ccccc1C1CCN(C2CCC(NC(=O)/C=C/c3cccc(Cl)c3Cl)CC2)CC1` (centres undefined), which IC50 is on record?
Its IC50 is 1.03 µM.

`Cc1ccc(C(NC(=O)Cc2ccccc2)c2ccc3cccnc3c2O)cc1` (centres undefined) was tested. Which IC50 did it give?
The IC50 was 0.62 µM.

Which IC50 does the source give for `Cc1cc(C)c(C)c(S(=O)(=O)N2CCCCC(c3ccc(F)c(F)c3)=N2)c1C` here?
The IC50 was 0.71 µM.

With `O=C(Nc1ccc(OC2CCN(Cc3ccc(F)cc3)C2)cc1)c1cccs1` (centres undefined) as the compound, how does the IC50 read?
The IC50 was 0.64 µM.

How did the IC50 turn out when `O=S(=O)(NCCN1CCCC1)c1ccc(-c2ccc(CNCc3ccccc3)cc2)s1` was run?
The IC50 was 0.85 µM.

How did the IC50 turn out when `Cc1cccc2[nH]c(-c3cccc(-c4cccc(C(=O)NCc5nccn5C)c4)c3)nc12` was run?
The IC50 was 0.53 µM.

How did the IC50 turn out when `CCOc1ccc2c(NN=Cc3cc(OC)c(OC)c(OC)c3)cc(C)nc2c1` was run?
The IC50 was 0.61 µM.

Which IC50 does the source give for `Cc1cccc2[nH]c(-c3ccc(-c4cccc(NC(=O)Nc5ccc(Cl)cc5)c4)s3)nc12` here?
The IC50 was 0.52 µM.

For `Cc1ccc(-n2cc(CNCCCn3ccnc3)c(-c3cccc(C)c3)n2)cc1`, which IC50 is on record?
Its IC50 is 0.77 µM.

For `CCOc1cc(Cl)c(C(C)NC(=O)c2cccc(OC)c2)cc1OCC` (centres undefined), which IC50 is on record?
The IC50 was 0.96 µM.

Which IC50 does the source give for `COc1ccc(COc2c(OC)cc(Cc3cnc(N)nc3N)cc2OC)cc1` here?
The IC50 was 0.91 µM.

Which IC50 does the source give for `CN1CCN(CCCN(Cc2csc(-c3ccc(CNCc4ccccc4)cc3)n2)S(=O)(=O)c2ccccc2)CC1` here?
Its IC50 is 0.77 µM.

Which IC50 does the source give for `CS(=O)(=O)c1ccc(CCNCc2ccc(-c3cccc(-c4nc5ccccc5[nH]4)c3)cc2)cc1` here?
Its IC50 is 0.19 µM.

How did the IC50 turn out when `COc1ccc2nc(N)nc(C)c2c1` was run?
The IC50 was 0.93 µM.

How did the IC50 turn out when `CCCCOP(=O)(OCCCC)C(=Cc1ccc(O)c2ccccc12)P(=O)(OCCCC)OCCCC` was run?
The IC50 was 1.07 µM.

With `CCN(CCN(C)C)Cc1ccc(-c2ccc(NS(=O)(=O)c3cccc(Cl)c3)cc2)cc1` as the compound, how does the IC50 read?
Its IC50 is 0.52 µM.

Which IC50 does the source give for `CCc1c[nH]c2c(N(c3ccccc3)S(C)(=O)=O)cc(C(=O)N[C@@H](Cc3ccccc3)[C@H](O)CNC(C)(C)CCCC(C)C)cc12` here?
Its IC50 is 0.82 µM.

For `O=C(N[C@@H](Cc1ccccc1)[C@H](O)CNC1CCCc2ccccc21)c1cc(C2CCCC2)cc(N2CCCC2=O)c1` (some centres undefined), which IC50 is on record?
Its IC50 is 0.16 µM.

How did the IC50 turn out when `O=C(Nc1ccsc1)Nc1cccc(-c2cccc(-c3nc4ccc(F)cc4[nH]3)c2)c1` was run?
Its IC50 is 0.2 µM.

For `CC(C)CN1CCC(N(C)c2cc(NC(=O)c3cccc(F)c3)ccn2)CC1`, which IC50 is on record?
The IC50 was 0.85 µM.

With `O=C(Nc1ccc(-c2oc(C(=O)NCCc3cccc(Cl)c3)cc2-c2ccncc2)cc1)Nc1cccc(Cl)c1` as the compound, how does the IC50 read?
Its IC50 is 0.72 µM.

For `Oc1ccc(Nc2nc(N3CCCC3)c3ccccc3n2)cc1`, which IC50 is on record?
The IC50 was 0.27 µM.

Which IC50 does the source give for `COc1ccc(Oc2cnc(N)nc2N)c(C(C)C)c1` here?
Its IC50 is 0.74 µM.

With `CN1CCC(N2CCN(Cc3cccc(-c4ccc(-c5nc6ccccc6[nH]5)cc4)c3)CC2)CC1` as the compound, how does the IC50 read?
Its IC50 is 0.16 µM.

`COc1ccc(NC(=O)Nc2ccc(-c3ccccc3)cc2Cl)cc1N1CCN(C)CC1` was tested. Which IC50 did it give?
Its IC50 is 0.87 µM.

Which IC50 does the source give for `Cc1cc(N(C)C)nc(Nc2ccc(NC(=O)c3ccccc3Cl)cc2)n1` here?
Its IC50 is 1.02 µM.

`O=C(CN1CCN(C(=O)c2ccco2)CC1)Nc1ccc(Br)cc1Cl` was tested. Which IC50 did it give?
Its IC50 is 0.77 µM.

How did the IC50 turn out when `N#Cc1ccccc1N1CCN(C2CCC(NC(=O)c3n[nH]c4cc(C(F)(F)F)ccc34)CC2)CC1` (centres undefined) was run?
Its IC50 is 1.37 µM.

`Cc1cccc2[nH]c(-c3ccc(-c4ccc(NC(=O)C5CCN(C)CC5)cc4)cc3)nc12` was tested. Which IC50 did it give?
The IC50 was 0.75 µM.

For `COc1ccc(CNC2CCN(C)CC2)cc1-c1ccc(S(=O)(=O)NCCc2ccccn2)c(F)c1`, which IC50 is on record?
The IC50 was 0.82 µM.
